Results published in patent publication US10875898B2, “Bioactive protein, use thereof and method for its production” (Koppert B.V., priority 2014, dated 2020).

Columns and labels:
[1] = system: Lotus japonicus; experiment: Rhizobium lotii on Lotus japonicus in vitro system, plant growth and nodule density; format: in vivo; details: HYTLO1 0.07 μM, 6PP 0.002 μM, 4 weeks after seeding; for plant growth promotion effect of Rhizobia on Lotus japonicus: HA 0.001 μM in MS media; for nodule formation (number of nodules per cm of root): HA 0.001 μM, with R. loti
Description: Wt+Rhz=treatment with R. loti, Wt-Rhz without R. loti. (D) Growth measured after 4 weeks, in the absence (cont) or presence of Rhizoba R. loti ((+) Rhiz). The purified molecules were added to the sterile MS media and poured into Petri dishes. Data were recorded 4 weeks after seeding of L. japonicus.
FIG. 18. […] (HYT=HYTLO1 at 0.07 μM, 6PP at 0.002 μM, HA=Harzianic Acid at 0.001 μM). Wt=control with R. loti without metabolites. The purified molecules were added to the sterile MS media and poured into Petri dishes. Average number of nodules per cm of root are indicated. Data were recorded 4 weeks after seeding of L. japonicus.
In order to test the effect of HYTLO1, as well as of the secondary metabolites HA and 6PP on the growth promotion activity of Rhizobia, such as Rhizobium sp., on legumimosae plants, we used a standard Rhizobium lotii on Lotus japonicus in vitro system (Barbulova et al., 2005, Functional Plant Biology, 32:529-536). Plant growth and nodule density on the roots were scored four weeks after seeding by comparing untreated controls and the various treatments.

[2] = system: cucumber; experiment: combined application of HYTLO1, HA and 6PP on cucumber seed germination and growth promotion; format: in vivo; parameters: Root length, increase % vs. Control / Plant fresh weight, increase % vs. Control / Plant dry weight, increase % vs. Control / plant height, increase % vs. Control: concentration or dose not given beside the values; details: for Plant dry weight / Root length (cm) / Plant fresh weight / plant height (cm): 30 days after seed coating; for Plant dry weight: SD +− 1.3 g; for Root length (cm): SD +− 2.1 cm; for Plant fresh weight: SD +− 2.5 g; for plant height (cm): drench 10^−7M 6PP and HA, 10^−8M HYTLO1, half or one third dose in combinations, SD +− 2.5 cm; for Seed germination (24 h): coated cucumber seeds on humid filter paper, SD +− 9%
Description: Tested metabolites include 6PP and Harzianic Acid, and experiments were performed on seed germination, stem or root elongation as well fresh/dry weight. The results shown in Table 1 were obtained by using cucumber seeds coated with the solutions of the tested compounds, that were then transferred in Petri dishes and left to germinate on filter humid paper. First seed germination was evaluated, then the germinated seedlings were transplanted into pots containing sterilised soil. Other two treatments with the purified molecules were performed at 10 days interval, by drenching the soil with the solutions at the final concentrations of 10^−7M for 6PP and HA, and 10^−8M for HYTLO1. In two-compounds application, half dose of each molecule was used. In three-compound applications, one third of the dose of each molecules was used. Each treatments consisted of 8 plants. Results were collected 30 days after seed coating. Control was produced by adding water instead of the molecule solutions. The effect of the minimal amounts of solvents eventually contained in HA and 6PP solution was preliminary tested, with no differences observed in comparison to water control. The results shown in Table 1 that all of the three tested molecules have a significant beneficial effect on seed germination and plant growth, and that they can be synergistically combined for enhanced effectiveness.

CCCCCc1cccc(=O)o1 [6PP, 6-Pentyl-α-pyrone]
plant growth promotion effect of Rhizobia on Lotus japonicus [1]: Enhancement of the effect of Rhizobium lotii | nodule formation (number of nodules per cm of root) [1]: Enhancement of nodule formation | Plant dry weight [2]: 7.1 g | Root length (cm) [2]: 17.6 cm | Plant fresh weight [2]: 22.04 g | plant height (cm) [2]: 21.8 cm | Seed germination (24 h) [2]: 75% | Seed germination (24 h), increase % vs. Control ([2]; vs water control): +25% | Plant dry weight, increase % vs. Control ([2]; vs water control, 30 days): 42.3% | Plant fresh weight, increase % vs. Control ([2]; vs water control, 30 days): 25.9% | Root length, increase % vs. Control ([2]; vs water control, 30 days): 31.1%

CCC/C=C/C=C/C(O)=C1/C(=O)C(CC(O)(C(=O)O)C(C)C)N(C)C1=O (centres unmarked) [HA, Harzianic acid]
plant growth promotion effect of Rhizobia on Lotus japonicus [1]: Enhancement of the effect of Rhizobium lotii | nodule formation (number of nodules per cm of root) [1]: Enhancement of nodule formation | Plant dry weight [2]: 7.6 g | Root length (cm) [2]: 13.6 cm | Plant fresh weight [2]: 23.36 g | plant height (cm) [2]: 27.4 cm | Seed germination (24 h) [2]: 75% | Seed germination (24 h), increase % vs. Control ([2]; vs water control): +25% | Plant dry weight, increase % vs. Control ([2]; vs water control, 30 days): 46.1% | Plant fresh weight, increase % vs. Control ([2]; vs water control, 30 days): 30.1% | Root length, increase % vs. Control ([2]; vs water control, 30 days): 10.7% | plant height, increase % vs. Control ([2]; vs water control, 30 days): 8.4%
